Reference: a melting point compilation (Tetko et al.; mined from patent text by program, amines drawn as free bases though some values may be those of a salt)

Row | SMILES | melting point
1 | COc1cc(Nc2nc3cccc(-c4ccc5ncccc5c4)c3o2)cc(OC)c1OC | 187 to 190 °C
2 | Fc1ccc(-c2cn(C3CCCN4CCCCC34)nn2)cc1 (stereo not given) | 142 °C
3 | CCC1c2cc(F)ccc2-c2cc(-c3ccccc3)ccc2N1S(=O)(=O)c1ccc(O)cc1 (stereo not given) | 207 °C
4 | CCN1C(=O)N(c2cc(OC)cc(OC)c2)Cc2cnc(S(C)=O)nc21 (stereo not given) | 167 to 169 °C
5 | COc1ccc(C(=O)CC(C)C)c(Cl)c1Cl | 49 to 54 °C
6 | CC(C)(C)OCC(O)CN (stereo not given) | 41 to 43 °C
7 | CC1=CC(=O)C=C2CC(C)C3C4CCC(=O)C4(C)CCC3C12C (stereo not given) | 148 to 151 °C
8 | CCOC(=O)c1c[nH]c2c(=O)ccc(Cl)cc2c1=O | 138 to 140 °C
9 | CCCOc1ccc([N+](=O)[O-])cc1C=O | 51 to 52 °C
10 | O=c1cc(Cl)nc2sc(SCc3ccccc3)nn12 | 138 to 140 °C
11 | Nc1ccc(S(=O)c2ccc(-c3ccc(Br)cc3)cc2)cc1[N+](=O)[O-] (stereo not given) | 218 to 220 °C
12 | CC(C)c1ccc2c(c1)OC1(O)c3ccccc3C(=O)C21O (stereo not given) | 195 to 198 °C
13 | COC(=O)N1Cc2c(O)noc2C(C)C1 (racemic) | 128 to 129 °C
14 | CCOC(Cc1ccc(OCCN2CCOc3ccccc32)cc1)C(=O)NC (stereo not given) | 97 to 99 °C
15 | O=C1NCCNCCNCCNC(=O)c2cccc1n2 | 224 to 227 °C
16 | N/C(=C1/Sc2ccccc2C1=O)c1ccc(F)cc1 | 158 °C
17 | O=C1Nc2cccc(Cl)c2C(=O)N2C=CC[C@@H]12 | 249 to 251 °C
18 | CC(C)Oc1nn(CCO)cc1C(=O)NCc1ccc(Cl)cc1Cl | 122 to 123 °C
19 | CN(C)C(=C[N+](=O)[O-])NCc1ccc(Cl)nc1 | 124 to 125 °C
20 | C=CC[C@H]1C(=O)N(S(C)(=O)=O)[C@H]2CCN(C(=O)OCc3ccccc3)[C@H]12 (relative stereo) | 92 to 94 °C
21 | Cc1nc2cc(NC(=O)c3cc4cc(F)ncc4n3Cc3cccc(F)c3)ccc2s1 | 193 to 195 °C
22 | Cc1nc(-c2ccccc2)c(C)c(=O)o1 | 68 °C
23 | O=C1Nc2cc(F)ccc2C12COc1cc3c(cc12)CCO3 (stereo not given) | 249 to 251 °C
24 | Cc1cc(C)c2ncc(C#N)c(-c3ccccc3Cl)c2c1 | 153 to 154 °C

Row | SMILES | melting point
25 | COc1cccc(OCCF)c1-c1ccc(C[C@H](NC(=O)c2c(Cl)cccc2Cl)C(=O)O)cc1 | 206 to 207 °C
26 | C#CC[C@H](c1nc2cccnc2c(=O)n1Nc1ccccc1)N(CCCNC(=O)OCc1ccccc1)C(=O)c1cccc(Cl)c1F | 100 to 102 °C
27 | COc1cc(CCCCC2OC(=O)NC2=O)ccc1OCc1csc(/C=C/c2ccccc2)n1 (stereo not given) | 167 to 168 °C
28 | Cc1cccc(Cl)c1NC(=O)NCc1ccc2c(c1)CN(C1CCC(=O)NC1=O)C2=O (stereo not given) | 243 to 245 °C
29 | COC(=O)Cc1nc(-c2ccc(Cl)cc2)oc1-c1ccsc1 | 127 to 128 °C
30 | O=C(Nc1ccccc1Br)OCc1cn(-c2cc3cc(C(=O)O)c(=O)[nH]c3cc2C(F)(F)F)cn1 | 145 to 147 °C
31 | COc1ccc(-c2cc(CN3CCN(C)CC3)c(=O)n(Cc3ccc(Cl)cc3)n2)cc1F | 129 to 130 °C
32 | CCc1cc2c(=O)c3cccc(C(=O)OCOC(=O)C(C)(C)C)c3n(Cc3ccc(-c4ccccc4-c4nnn[nH]4)cc3)c2s1 | 146 to 152 °C
33 | Cc1nc(-n2ccc(O)cc2=O)sc1C(=O)NCCC1CC1 | 234 to 236 °C
34 | COc1ccc(CCn2ccn(C3CCc4ccccc4C3)c2=S)cc1OC (stereo not given) | 97 to 101 °C
35 | COc1cc2c(cc1OC)CN(CCc1ccc(NC(=O)c3cccc4c(=O)c5cccc(C)c5[nH]c34)cc1)CC2 | 175 °C
36 | O=C(O)c1ccc(-c2nc(-c3ccccc3)co2)cc1 | 275 to 276 °C
37 | FC(F)(F)c1ccc(C2=NN(C(=S)Nc3ccc(Cl)cc3)CC2c2ccccc2)cc1 (stereo not given) | 208 to 210 °C
38 | Cn1nc(N)c2sc3c(Cl)cccc3c21 | 239 to 241 °C
39 | COc1ccc2c3c1O[C@H]1C[C@@H](O)C=C[C@@]31CCN(CCN1CCOCC1)C2 | 101 to 104 °C
40 | COc1ccc(-c2cc3ccc(C)cc3s2)cc1 | 198 to 200 °C
41 | COC(CCCNc1ccc(-c2nc(=O)c3ccccc3s2)cn1)OC | 157 to 158 °C
42 | O=c1n(CCCCN2CCN(c3ccccc3)CC2)nc2n1-c1ccccc1OC2 | 85 to 87 °C
43 | CC(=O)Nc1ccc(S(=O)(=O)Nc2ccn(C3CCCC3)c(=O)n2)cc1 | 219 to 228 °C
44 | N#Cc1cc(-c2ncccc2C(=O)O)ccc1OCCc1ccccc1[N+](=O)[O-] | 216 to 217 °C
45 | CCOC(=O)c1cnc2nc(C)c(OCC)cc2c1O | 255 to 258 °C
46 | CCOP(=O)(Cc1ccc2ccccc2c1O)OCC | 90.1 to 91.3 °C
47 | O=C(O)c1c(Cl)nc(Cl)nc1Cl | 150 °C
48 | CC(=O)N1CCc2cc(-c3ccc4c(c3)CC[C@H]3N(C)C(=O)CC[C@]43C)ccc21 | 197 to 200 °C

Row | SMILES | melting point
49 | Cc1cc(CC2SCNC2=O)cc(C(C)(C)C)c1O (stereo not given) | 64 to 68 °C
50 | O=C(N1CCCC1)N1Cc2c(-c3ccc(F)cc3)ncn2-c2ccccc21 | 217 to 218 °C
51 | c1cc2c(cc1C1CCC3(CC1)OCCO3)OCO2 | 115 to 116 °C
52 | CNC(=O)[C@H](Cc1ccccc1)NC(=O)[C@H](CC(C)C)N[C@H](CCN(C(=O)OCc1ccccc1)C(=O)OCc1ccccc1)C(=O)OC(C)(C)C | 95 to 99 °C
53 | Cc1oc(-c2ccccc2)nc1COc1ccc(CCl)cn1 | 86 to 87 °C
54 | NC(=O)c1nc(-c2cccc(O)c2)nc2c1[nH]c(=O)n2-c1ccc(C(F)(F)F)cc1 | 360 to 364 °C
55 | CC1CCCN1CC=CC(=O)Nc1cc2c(Nc3ccc(F)c(Cl)c3)ncnc2cc1OCC1CC1 (stereo not given) | 108 to 110 °C
56 | COc1cc(OC)nc(NS(=O)(=O)C(C(N)=O)C(C)C)n1 (stereo not given) | 147 to 150 °C
57 | O=C(Nc1nc(OCc2ccc(F)cc2)ncc1F)Oc1ccccc1 | 129 to 131 °C
58 | CCOC(=O)c1cc(C)cc([N+](=O)[O-])c1O | 97 °C
59 | Fc1ccc([C@H]2CC[C@H](N3CCC(Cc4cc(F)ccc4F)CC3)CC2)cc1 | 80 to 81 °C
60 | O=C(C=Cc1c(Cl)ccc(Cl)c1Cl)c1ccc(OC2CCCCO2)cc1 (stereo not given) | 101 to 104 °C
61 | O=C(O)CCCOc1cccc(CCCCCCOc2ccc3c(c2CCCc2ccccc2)CCCC3=O)c1CCC(=O)O | 89 to 91 °C
62 | CC(C)(C)c1ccc(C(O)CCCN2CCC(OC(c3ccccc3)c3ccccc3)CC2)cc1 (stereo not given) | 129 to 131 °C
63 | CCOc1ccc(-c2ccc3c(c2)C=C(C(=O)Nc2ccc(CO)cc2)CCO3)cc1 | 208 to 210 °C
64 | CCOC(=O)c1c(Cn2ccnc2CC)nc2cc(OC)c(OC)cc2c1-c1ccc(OC)c(OC)c1 | 163 to 164 °C
65 | CN1C(=O)CC(=O)N(c2ccccc2)C1=O | 124 °C
66 | N#Cc1nn(-c2c(Cl)cc(C(F)(F)F)cc2Cl)c(N)c1-c1ccc(SC(F)(F)F)s1 | 162 to 163 °C
67 | CCOC(=O)C(=CNc1ccn(Cc2ccccc2)n1)C(=O)OCC | 57 to 59 °C
68 | COc1ccc(C(=O)CBr)cc1C12CC3CC(CC(C3)C1)C2 | 140 to 141 °C
69 | Nc1ccc(C#Cc2ccc(C#Cc3ccccc3)c([N+](=O)[O-])c2)cc1 | 175 to 177 °C
70 | CN(c1ccccc1)c1nc(Cl)nc(N2CCOCC2)n1 | 93.5 to 95.5 °C
